Results as given in patent US20250101009A1, “Compounds, Compositions and Methods for Treatment of Age-Related Ocular Disorders” (priority 2022, published 2025).

Columns and labels:
acetylcholinesterase = target: T1, acetylcholinesterase (Homo sapiens, UniProt P22303); test: Hydrolysis study in vitro with acetylcholinesterase (HPLC); format: in vitro ADME; details: for assay of compound remaining during enzymatic hydrolysis: acetylcholinesterase 2.0 mg/ml, simulated tear pH 7.4, 37.5° C.
T1 construct: purchased
Procedure: The commercial esterase was dissolved in simulated tear (pH 7.4). Dissolving an appropriate amount of the compounds of the invention in solvent. The stock solutions were kept in screw-capped vials at 4° C. The reaction was initiated by adding stock solution of the prodrug to preheated esterase solution in a screw-capped vial at 37.5° C. The solution was kept in a water bath at 37.5° C. and at appropriate time intervals. 20 mL aliquot was taken and, after filtration using membrane syringe filter, analyzed immediately by HPLC.
The tear fluid was prepared by dissolving sodium chloride (0.67%, w/v), sodium bicarbonate (0.2% w/v) and calcium chloride dihydrate (0.008% w/v) in water and pH was adjusted to 7.4.
(§1) The acetylcholinesterase was dissolved in simulated tear (pH 7.4) to give a concentration of 2.0 mg/ml. Dissolving the appropriate number of compound 1 in pH 7.0 buffer solution to obtain a concentration of […]. The stock solutions were kept in screw-capped vials at 4° C. The reaction was initiated by adding 20 uL of a stock solution of the compound 1 in pH 7.0 buffer solution to 1 ml of preheated esterase solution in a screw-capped vial at 37.5° C., for a total of 10 identical reaction solutions. The reaction solutions were kept in a water bath at 37.5° C. and at 20 min intervals an aliquot was taken and, after filtration using membrane syringe filter, analyzed immediately by HPLC.
as §1, with “compound 2” for “compound 1”, “20 μL” for “20 uL”, “of 11” for “of 10”
as §1, with “compound 3” for “compound 1”, “20 μL” for “20 uL”, “1 mL” for “1 ml”, “of 12” for “of 10”

rabbit pupil = test: Miotic effect in rabbits (pupil diameter); format: in vivo, male New Zealand White rabbits
Procedure: The ocular activity evaluation based on the miotic effect in rabbits
The pupil size was determined for several compounds in male New Zealand White rabbits. Pilocarpine hydrochloride (Vuity™) was used as positive control. The pupillometer was placed in the eye socket of the rabbit, and the camera was taken 0 min before and 5 min, 10 min, 15 min, 30 min, 45 min and 1 h after dosing. For the latter picture, take three photos at each time point. After the experiment, the pictures were sorted out to observe the pupil change trend after dosing. This method can be used to evaluate whether the miotic agent moiety in the compounds of the invention can constrict the rabbit's pupil.
Under a constant light source (light intensity 40 Lux), the rabbits were fixed in the rabbit box without anesthesia. Before the experiment, the pupil diameter (mm) before drug administration was measured with a pupil measuring ruler and photographed. […] The time of administration was recorded, and the pupil diameter was measured with a pupillometer and photographed with Canon EOS M6 Mark II (SLR) after 5 min, 10 min, 15 min, 30 min, 45 min, 1 h, 2 h, 3 h, 4 h and 5 h, respectively. […]

[1] = assay decreased more with increasing time

T1 sequence (P22303 32-614, species assumed): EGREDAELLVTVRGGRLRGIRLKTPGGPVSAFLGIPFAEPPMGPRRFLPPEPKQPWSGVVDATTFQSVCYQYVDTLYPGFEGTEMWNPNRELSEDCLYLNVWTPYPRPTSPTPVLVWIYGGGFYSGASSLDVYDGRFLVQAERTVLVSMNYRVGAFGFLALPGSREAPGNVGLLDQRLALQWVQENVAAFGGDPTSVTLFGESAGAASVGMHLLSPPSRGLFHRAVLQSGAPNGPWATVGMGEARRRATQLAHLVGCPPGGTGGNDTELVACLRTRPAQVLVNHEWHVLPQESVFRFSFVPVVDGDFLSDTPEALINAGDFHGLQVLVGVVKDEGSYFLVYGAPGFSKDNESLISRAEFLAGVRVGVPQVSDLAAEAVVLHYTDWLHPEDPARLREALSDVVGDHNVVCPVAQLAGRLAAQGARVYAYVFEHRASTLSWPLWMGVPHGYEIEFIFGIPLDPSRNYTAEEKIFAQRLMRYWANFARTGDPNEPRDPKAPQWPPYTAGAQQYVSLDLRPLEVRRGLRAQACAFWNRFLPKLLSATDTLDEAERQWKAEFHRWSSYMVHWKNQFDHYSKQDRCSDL

Row | SMILES | assay of compound remaining during enzymatic hydrolysis (acetylcholinesterase; 0 min) | assay of compound remaining during enzymatic hydrolysis (acetylcholinesterase; 20 min) | assay of compound remaining during enzymatic hydrolysis (acetylcholinesterase; 40 min) | assay of compound remaining during enzymatic hydrolysis (acetylcholinesterase; 60 min) | assay of compound remaining during enzymatic hydrolysis (acetylcholinesterase; 80 min) | assay of compound remaining during enzymatic hydrolysis (acetylcholinesterase; 100 min) | assay of compound remaining during enzymatic hydrolysis (acetylcholinesterase; 120 min) | assay of compound remaining during enzymatic hydrolysis (acetylcholinesterase; 140 min) | assay of compound remaining during enzymatic hydrolysis (acetylcholinesterase; 160 min) | assay of compound remaining during enzymatic hydrolysis (acetylcholinesterase; 180 min) | assay of compound remaining during enzymatic hydrolysis (acetylcholinesterase; 200 min) | hydrolysis by acetylcholinesterase (in words) (acetylcholinesterase; after 200 minutes) | rabbit pupil under treatment (recorded images) (rabbit pupil) | miotic effect in rabbits versus positive control (rabbit pupil; 1.25%, 20 μL/eye topical, compared with Vuity 1.25%) | assay of compound remaining during enzymatic hydrolysis (acetylcholinesterase; 220 min) | hydrolysis by acetylcholinesterase (in words) (acetylcholinesterase; [1]) | assay of compound remaining during enzymatic hydrolysis (acetylcholinesterase; 240 min)
1 | CC[C@@H]1C(=O)OC[C@@H]1Cc1c[n+](COC(=O)CCCC[C@@H]2CCSS2)cn1C [Compound 1, 3-(((5-((R)-1,2-dithiolan-3-yl)pentanoyl)oxy)methyl)-5-(((3R,4S)-4-ethyl-5-oxotetrahydrofuran-3-yl)methyl)-1-methyl-1H-imidazol-3-ium chloride] | 70.29% | 56.17% | 34.03% | 30.13% | 19.93% | 17.19% | 15.06% | 11.77% | 8.45% | 6.94% | 5.05% | hydrolyzed by acetylcholinesterase almost completely | shrinking | comparable to the positive control drug | – | – | –
2 | CC[C@@H]1C(=O)OC[C@@H]1Cc1c[n+](CCOC(=O)CCCC[C@@H]2CCSS2)cn1C [Compound 2, 3-(2-((5-((R)-1,2-dithiolan-3-yl)pentanoyl)oxy)ethyl)-5-(((3R,4S)-4-ethyl-5-oxotetrahydrofuran-3-yl)methyl)-1-methyl-1H-imidazol-3-ium chloride] | 100.00% | 95.69% | 88.08% | 86.47% | 80.61% | 77.56% | 75.40% | 72.81% | 68.28% | 65.90% | 63.68% | – | – | – | 60.88% | hydrolyzed by acetylcholinesterase | –
3 | CC[C@@H]1C(=O)OC[C@@H]1Cc1c[n+](CCOCCOCCOC(=O)CCCC[C@@H]2CCSS2)cn1C [Compound 3, 3-(2-(2-(2-((5-((R)-1,2-dithiolan-3-yl)pentanoyl)oxy)ethoxy)ethoxy)ethyl)-5-(((3R,4S)-4-ethyl-5-oxotetrahydrofuran-3-yl)methyl)-1-methyl-1H-imidazol-3-ium] | 95.40% | 88.83% | 88.26% | 79.40% | 75.30% | 70.87% | 68.62% | 63.48% | 62.92% | 59.60% | 54.50% | – | – | – | 55.89% | hydrolyzed by acetylcholinesterase | 51.61%
